Laboratory results as given in ChEMBL document CHEMBL3046741, “Initial activity and persistence of insecticides for the control of bollworms (Lepidoptera: Noctuidae) in cotton crops” (2009).

Assays:
Type in all cases: functional
Helicoverpa armigera [1] = assay: Insecticidal activity against L2 larvae of Helicoverpa armigera assessed as mortality after 48 hr by leaf disk assay
Helicoverpa armigera [2] = assay: Insecticidal activity against Helicoverpa armigera assessed as time above which insecticide kills less than 50% of larvae by measuring index of persistence in presence of 24 mm of simulated rain applied at three days interval
Diparopsis watersi = assay: Insecticidal activity against L3 to L4 larvae of Diparopsis watersi assessed as mortality after 48 hr by leaf disc assay
Helicoverpa armigera [3] = assay: Insecticidal activity against L4 larvae of Helicoverpa armigera assessed as mortality after 48 hr by leaf disk assay
Earias = assay: Insecticidal activity against L3 to L4 larvae of Earias spp. assessed as mortality after 48 hr by leaf disk assay
Helicoverpa armigera [4] = assay: Insecticidal activity against L3 larvae of Helicoverpa armigera assessed as mortality after 48 hr by leaf disk assay
Helicoverpa armigera [5] = assay: Insecticidal activity against L1 larvae of Helicoverpa armigera assessed as mortality after 48 hr by leaf disk assay
Helicoverpa armigera [6] = assay: Insecticidal activity against L5 larvae of Helicoverpa armigera assessed as mortality after 48 hr by leaf disk assay
Helicoverpa armigera [7] = assay: Insecticidal activity against Helicoverpa armigera assessed as time above which insecticide kills less than 50% of larvae by measuring index of persistence under in absence of rain

Compound	mortality (Helicoverpa armigera [1])	Time (Helicoverpa armigera [2])	mortality (Diparopsis watersi)	mortality (Helicoverpa armigera [3])	mortality (Earias)	mortality (Helicoverpa armigera [4])	mortality (Helicoverpa armigera [5])	mortality (Helicoverpa armigera [6])	Time (Helicoverpa armigera [7])
CS/C(C)=N\OC(=O)N(C)SN(C)C(=O)O/N=C(\C)SC [THIODICARB]	99.2%	17.2 days	99.3%	97.5%	100%	94.1%	98.6%	96.5%	27 days
COC(=O)N(C(=O)N1CO[C@@]2(C(=O)OC)Cc3cc(Cl)ccc3C2=N1)c1ccc(OC(F)(F)F)cc1 [INDOXACARB]	78.9%	3.7 days	77.7%	90.9%	90.8%	89.3%	86.2%	94.5%	8.4 days
O=S1OCC2C(CO1)C1(Cl)C(Cl)=C(Cl)C2(Cl)C1(Cl)Cl (configuration not stated) [ENDOSULFAN]	91.5%	5.2 days	82.8%	89.5%	99.4%	94.1%	93.3%	92.5%	8.7 days
